Reference: ChEMBL document CHEMBL1201862, “PubChem BioAssay data set” (2004)
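All cell lines were grown in 96-well plates and treated with compound for 48 hours. Here, GI50 denotes the concentration required for 50% inhibition of growth.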 Active and inactive are the calls of the source. No stated cut-off is given here; in the data, active = GI50 up to about 1.1 µM and inactive = higher.

Legend:
Experiment in all cases: NCI anticancer screen, dose series, 48 h
KM12 = system: KM12
NCI-H460 = system: NCI-H460
OVCAR-3 = system: OVCAR-3
SNB-19 = system: SNB-19
SR = system: SR
OVCAR-4 = system: OVCAR-4
LOX IMVI = system: LOX IMVI
SNB-75 = system: SNB-75
HCC 2998 = system: HCC 2998
EKVX = system: EKVX
OVCAR-5 = system: OVCAR-5
Malme-3M = system: Malme-3M
SK-MEL-2 = system: SK-MEL-2
HL-60 = system: HL-60
UO-31 = system: UO-31
HT-29 = system: HT-29
RPMI-8226 = system: RPMI-8226
SF-295 = system: SF-295
COLO 205 = system: COLO 205
A549 = system: A549

Measured: GI50

COS(=O)c1cc(Cl)cc(Cl)c1O (stereo not given)
inactive: KM12 > 100 µM | NCI-H460 > 100 µM | OVCAR-3 > 100 µM | SNB-19 > 100 µM | SR > 100 µM | OVCAR-4 > 100 µM | LOX IMVI > 100 µM | SNB-75 87.7 µM | HCC 2998 > 100 µM | EKVX > 100 µM | OVCAR-5 > 100 µM | Malme-3M > 100 µM | SK-MEL-2 > 100 µM | HL-60 > 100 µM | UO-31 > 100 µM | HT-29 > 100 µM

CCOC(=O)c1nc2cc(C(F)(F)F)ccc2nc1Nc1ccc(C(=O)NC(C(=O)OCC)C(=O)OCC)cc1
inactive: KM12 27.5 µM | NCI-H460 73.6 µM | OVCAR-3 45.4 µM | RPMI-8226 11.5 µM | SNB-19 18.2 µM | SR 46.9 µM | OVCAR-4 10.6 µM | LOX IMVI 54.2 µM | HCC 2998 49.4 µM | EKVX 26.2 µM | OVCAR-5 45.1 µM | Malme-3M 20 µM | SK-MEL-2 52.5 µM | SF-295 15.5 µM | COLO 205 44.4 µM | HL-60 73.6 µM | UO-31 30.6 µM | HT-29 25.1 µM

CC1(C)OCC(CO)(CO)CO1
inactive: KM12 > 100 µM | A549 > 100 µM | NCI-H460 > 100 µM | OVCAR-3 > 100 µM | SNB-19 > 100 µM | SR > 100 µM | OVCAR-4 > 100 µM | LOX IMVI > 100 µM | SNB-75 > 100 µM | HCC 2998 > 100 µM | SF-295 > 100 µM | COLO 205 > 100 µM | HL-60 > 100 µM | UO-31 > 100 µM | HT-29 > 100 µM

CC1(C)N=C(/C(Cl)=[N+](/[O-])C(=O)c2ccc(Cl)cc2)C(C)(C)N1O
inactive: KM12 45.3 µM | A549 > 100 µM | NCI-H460 45.5 µM | OVCAR-3 17.5 µM | RPMI-8226 26.5 µM | SNB-19 > 100 µM | SR 28.3 µM | OVCAR-4 26.4 µM | LOX IMVI 6.76 µM | HCC 2998 25.9 µM | EKVX > 100 µM | OVCAR-5 23.6 µM | Malme-3M 17.7 µM | SK-MEL-2 52.7 µM | SF-295 56 µM | COLO 205 17 µM | HL-60 18.5 µM | UO-31 > 100 µM | HT-29 22.1 µM

CCOC(=O)C1=NN(c2ccc(C)cc2)C2=CC(C)=NN(C)C(=S)N21
inactive: KM12 > 100 µM | A549 70.6 µM | NCI-H460 > 100 µM | OVCAR-3 60 µM | RPMI-8226 > 100 µM | SNB-19 > 100 µM | SR > 100 µM | OVCAR-4 > 100 µM | LOX IMVI 26.9 µM | SNB-75 23.1 µM | HCC 2998 > 100 µM | EKVX 81.1 µM | OVCAR-5 88.5 µM | SK-MEL-2 > 100 µM | SF-295 > 100 µM | COLO 205 > 100 µM | HL-60 > 100 µM | UO-31 > 100 µM | HT-29 > 100 µM

Oc1nc2ccccc2c2oc3ccccc3c12
inactive: KM12 > 100 µM | A549 > 100 µM | NCI-H460 > 100 µM | OVCAR-3 > 100 µM | SNB-19 > 100 µM | SR > 100 µM | OVCAR-4 > 100 µM | SNB-75 6.81 µM | HCC 2998 > 100 µM | EKVX 2.9 µM | Malme-3M > 100 µM | SF-295 > 100 µM | COLO 205 > 100 µM | UO-31 > 100 µM | HT-29 > 100 µM

COc1ccc2c(C)cc(N/N=C(\C)C=O)nc2c1
inactive: KM12 12.3 µM | A549 18.5 µM | NCI-H460 8.99 µM | OVCAR-3 2.25 µM | RPMI-8226 6.31 µM | SNB-19 13 µM | SR 1.64 µM | OVCAR-4 11.2 µM | LOX IMVI 10.2 µM | SNB-75 13.6 µM | HCC 2998 11.9 µM | EKVX 16.6 µM | OVCAR-5 13 µM | Malme-3M 12 µM | SK-MEL-2 13.4 µM | SF-295 10 µM | COLO 205 13.8 µM | UO-31 13.2 µM | HT-29 12.2 µM

O=c1[nH]c(=O)n(C2CC(O)C(CO)O2)cc1C#Cc1ccc(F)cc1 (stereo not given)
inactive: KM12 > 100 µM | A549 > 100 µM | NCI-H460 > 100 µM | OVCAR-3 > 100 µM | RPMI-8226 > 100 µM | SNB-19 > 100 µM | SR > 100 µM | OVCAR-4 25.8 µM | LOX IMVI > 100 µM | SNB-75 > 100 µM | HCC 2998 > 100 µM | EKVX > 100 µM | OVCAR-5 > 100 µM | Malme-3M > 100 µM | SK-MEL-2 > 100 µM | SF-295 > 100 µM | COLO 205 > 100 µM | UO-31 > 100 µM | HT-29 > 100 µM

CC(c1ccccc1)N1CCN(C(C)c2ccccc2)CC1 (stereo not given)
inactive: KM12 > 100 µM | A549 > 100 µM | NCI-H460 65.2 µM | OVCAR-3 35.4 µM | RPMI-8226 26.1 µM | SNB-19 > 100 µM | SR 35.8 µM | OVCAR-4 > 100 µM | LOX IMVI > 100 µM | HCC 2998 20.1 µM | EKVX > 100 µM | OVCAR-5 > 100 µM | Malme-3M 56.6 µM | SK-MEL-2 35.2 µM | SF-295 > 100 µM | HL-60 > 100 µM | UO-31 > 100 µM | HT-29 44.8 µM

O=C(Nc1cccc([N+](=O)[O-])c1)C(=O)C(C(=O)c1ccccc1F)C1OC(=O)C2C=CC=CC21 (stereo not given)
inactive: KM12 27.3 µM | A549 37.5 µM | NCI-H460 40.9 µM | RPMI-8226 23.8 µM | SNB-19 29.9 µM | SR 7.06 µM | OVCAR-4 47.2 µM | LOX IMVI 21.1 µM | SNB-75 28.7 µM | HCC 2998 36.1 µM | EKVX 41 µM | OVCAR-5 81.7 µM | SK-MEL-2 30.3 µM | SF-295 43.9 µM | COLO 205 35.2 µM | HL-60 20 µM | UO-31 44.1 µM | HT-29 41.6 µM

O=C1Nc2ccccc2N/C1=C\C(=O)C(F)F
inactive: KM12 > 100 µM | A549 > 100 µM | NCI-H460 > 100 µM | OVCAR-3 > 100 µM | RPMI-8226 > 100 µM | SNB-19 > 100 µM | SR > 100 µM | OVCAR-4 > 100 µM | LOX IMVI > 100 µM | HCC 2998 > 100 µM | EKVX 14.9 µM | OVCAR-5 > 100 µM | Malme-3M > 100 µM | SK-MEL-2 > 100 µM | SF-295 > 100 µM | COLO 205 > 100 µM | HL-60 > 100 µM | UO-31 > 100 µM | HT-29 > 100 µM
